# Source: US20100196512A1, “Treatment of Non-Oral Biological Tissue with Chlorine Dioxide” (priority 2009, published 2010)
# Columns and labels:
# [1] = test system: mixed PA/MRSA biofilm (total bacteria); experiment: Kill of mixed PA/MRSA biofilm grown on ceramic disks by chlorine dioxide solution; assay type: cell-based, Staphylococcus aureus and Pseudomonas aeruginosa; conditions: for Log Reduction in Organism Count: MRSA + PA biofilm, total bacteria
# Description: (§1) Chlorine dioxide treatment involves exposing micro-organisms to chlorine dioxide for a period of time. Treatment conditions, often called the “dose or dosage” of chlorine dioxide, can be determined by calculating the integral of the chlorine dioxide concentration as a function of time, C(t), over the treatment time of use:
# (§2) In systems where the chlorine dioxide concentration is generally constant over the treatment time (e.g., varies by less than ±10% relative) or varies linearly over the treatment time, an average chlorine dioxide concentration may be calculated by averaging the starting and ending concentrations and then multiplying that average chlorine dioxide concentration during an exposure period by the time of exposure (Average Concentration X Time). Dose is commonly given in units of ppm-minutes.
# (§3) A series of experiments were conducted to estimate the dose of chlorine dioxide needed to kill bacterial biofilms consisting of Pseudomonas aeruginosa (PA), methicillin resistant Staphylococcus aureus (MRSA), or a combination of both.
# (§4) Bacterial biofilms were grown for between 7 and 10 days on non-porous ceramic disks in a spinning disk biofilm reactor. The reactors were inoculated with PA, MRSA, or a mixture of MRSA and PA bacteria to produce PA, MRSA, or mixed PA/MRSA biofilms respectively.
# (§5) Chlorine dioxide solutions were produced at different nominal concentrations using ASEPTROL® S-Tab 10 tablets, and the exact concentrations were then measured using a Hach Model 2400 UV/Vis spectrophotometer in accordance with the manufacturer's instructions. Pairs of biofilm-containing disks were immersed for different times in solutions of different chlorine dioxide concentrations, neutralized with dilute sodium thiosulfate solution, and then plated to determine the number of surviving bacteria on each disk. Two untreated disks were also exposed to neutralizing solution and plated to determine the starting bacterial counts. In all tests, the baseline bacterial counts were in the range of 10^7 to 10^7.5 colony-forming units per disk (cfu/disk). A one log reduction refers to reducing the cfu/disk by one order of magnitude, e.g., a reduction from 10^7.1 cfu/disk to 10^6.1 cfu/disk. Accordingly, a substantially complete kill is achieved if the log reduction of bacteria is about 7 to 7.5.
# (§6) The table summarizes the test conditions used in the different experiments, and presents the results in terms of log reduction of the different bacterial organisms. In the case of mixed PA/MRSA biofilms, results are given as total bacteria.
# [2] = test system: Pseudomonas aeruginosa (PA) biofilm; experiment: Kill of PA biofilm grown on ceramic disks by chlorine dioxide solution; assay type: cell-based
# Description: as §1, §2, §3, §4, §5, §6
# [3] = test system: methicillin resistant Staphylococcus aureus (MRSA) biofilm; experiment: Kill of MRSA biofilm grown on ceramic disks by chlorine dioxide solution; assay type: cell-based
# Description: as §1, §2, §3, §4, §5, §6
structure (smiles),measurement,setting,value
"[O][Cl+][O-] [ClO2, chlorine dioxide]",Log Reduction in Organism Count,"[1]; Sample 12, exposure 10.0 minutes, ClO2 52 ppm, 520 ppm-min",5.5
same,Log Reduction in Organism Count,"[1]; Sample 13, exposure 30.0 minutes, ClO2 52 ppm, 1560 ppm-min",7.4
same,Log Reduction in Organism Count,"[1]; Sample 14, exposure 1.0 minutes, ClO2 181 ppm, 181 ppm-min",5.1
same,Log Reduction in Organism Count,"[1]; Sample 15, exposure 5.0 minutes, ClO2 160 ppm, 800 ppm-min",7.4
same,Log Reduction in Organism Count,"[1]; Sample 16, exposure 30.0 minutes, ClO2 160 ppm, 4800 ppm-min",7.4
same,dose for a kill of about 5 orders of magnitude (5 log),"[1]; mixed PA/MRSA biofilm, see Sample 12",greater than 200 ppm-min
same,Log Reduction in Organism Count,"[2]; Sample 6, exposure 0.5 minutes, ClO2 200 ppm, 100 ppm-min",5.9
same,Log Reduction in Organism Count,"[2]; Sample 7, exposure 5.0 minutes, ClO2 43 ppm, […]-min",5.7
same,Log Reduction in Organism Count,"[2]; Sample 8, exposure 5.0 minutes, ClO2 187 ppm, 935 ppm-min",7.5
same,Log Reduction in Organism Count,"[2]; Sample 9, exposure 10.0 minutes, ClO2 37 ppm, 370 ppm-min",7.5
same,Log Reduction in Organism Count,"[2]; Sample 10, exposure 50.0 minutes, ClO2 35 ppm, 1750 ppm-min",7.5
same,Log Reduction in Organism Count,"[2]; Sample 11, exposure 50.0 minutes, ClO2 166 ppm, 8300 ppm-min",7.5
same,dose for a kill of about 5 orders of magnitude (5 log),[2]; see Sample 7,greater than 200 ppm-min
same,Log Reduction in Organism Count,"[3]; Sample 1, exposure 1.0 minutes, ClO2 208 ppm, 208 ppm-min",5.5
same,Log Reduction in Organism Count,"[3]; Sample 2, exposure 5.0 minutes, ClO2 204 ppm, 1020 ppm-min",7.1
same,Log Reduction in Organism Count,"[3]; Sample 3 (second line), exposure 30.0 minutes, ClO2 40 ppm, 1200 ppm-min",5.1
same,Log Reduction in Organism Count,"[3]; Sample 3, exposure 10.0 minutes, ClO2 45 ppm, 450 ppm-min",5.5
same,Log Reduction in Organism Count,"[3]; Sample 4, exposure 30.0 minutes, ClO2 175 ppm, 5250 ppm-min",7.1
same,dose for a kill of about 5 orders of magnitude (5 log),[3]; see Sample 1,greater than 200 ppm-min
